“Also recorded” adds a separate entry of the source. Where a SMILES comes first, the peptide text is derived from it.
How the values were obtained:
cellular tyrosinase = target: T1, cellular tyrosinase (Mus musculus, UniProt P11344); experiment: Intracellular (cellular) tyrosinase activity assay in UV-induced B16F10 cells; assay type: cell-based, murine; details: 70 μM peptide, UVA/UVB-induced B16F10 cells, triplicate
T1 construct: the harvested cells were lysed in cell extraction buffer; endogenous in cells; host or cells: B16F10 murine melanoma cells, UVA/UVB-induced
T1 sequence (P11344 19-533): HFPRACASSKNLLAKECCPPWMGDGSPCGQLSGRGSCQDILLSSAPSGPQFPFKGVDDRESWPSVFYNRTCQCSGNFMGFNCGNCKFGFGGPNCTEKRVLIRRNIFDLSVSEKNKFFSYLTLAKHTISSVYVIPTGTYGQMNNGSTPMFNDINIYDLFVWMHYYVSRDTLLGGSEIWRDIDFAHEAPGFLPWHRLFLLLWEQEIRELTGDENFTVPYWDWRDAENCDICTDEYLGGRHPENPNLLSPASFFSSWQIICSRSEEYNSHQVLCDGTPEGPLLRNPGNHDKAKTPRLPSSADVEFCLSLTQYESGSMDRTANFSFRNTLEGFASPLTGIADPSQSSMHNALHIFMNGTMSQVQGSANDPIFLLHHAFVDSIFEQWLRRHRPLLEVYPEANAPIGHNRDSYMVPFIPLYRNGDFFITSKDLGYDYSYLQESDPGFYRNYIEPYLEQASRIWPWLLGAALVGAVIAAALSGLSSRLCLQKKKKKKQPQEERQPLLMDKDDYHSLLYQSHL
Procedure: Tyrosinase activity was measured based on Dopa oxidase activity by estimating the dopachrome production according to the method by Qiao et al., 2012 [54], with some modifications. B16F10 cells were seeded at 5 × 10^6 cells/mL in 24-well plates. […] Each well was then washed and replaced with PBS 600 μL and induced with UVA (314-400 nm, 3.0 W) and UVB (280-315 nm, 13.6 W) using OSRAM (Ultra-Vitalux, Germany) for 22 s (0.32 J/cm^2). After that, the cells were incubated with medium 600 μL/well for a further 24 h. Then, the cells were trypsinized and the harvested cells were lysed in cell extraction buffer. After normalized protein concentration, 10 μL of each lysate supernatant was aliquoted into a 96-well plate and shaking incubated in dark conditions with 1 mM L-DOPA 90 μL in PBS at 37 °C at 280 rpm for 10 min. The absorbance was measured at 475 nm and all experiments were performed in triplicate to determine the IC50 of the samples. The cellular tyrosinase inhibitory activity was calculated with the following equation: % Cellular tyrosinase inhibition=[(C)-(S)/(C)]×100, where, C are defined as in the previous section.

B16F10 melanoma cells [1] = experiment: Melanin content assay in UV-induced B16F10 cells; assay type: cell-based, murine; details: for inhibition of melanin content: 70 μM peptide, UVA/UVB-induced B16F10 cells, triplicate
Procedure: Cellular melanin content was measured using a modified method by Jegal, et al.. B16F10 cells were seeded at 5 × 10^5 cells/mL in 24-well plates. […] After that, the cells in each well were washed and replaced by PBS. The UV stimulation process was performed by the exposure to UVA (314-400 nm, 3.0 W) and UVB (280-315 nm, 13.6 W) for 22 s. Then, PBS was replaced with media and further incubated for 24 h. The UV-stimulated cells were then trypsinized and centrifuged at 1500 rpm for 5 min. The cell pellet was then dissolved in 2 M NaOH at 60 °C for 1 h to solubilize the melanin. The melanin content was estimated by measuring the absorbance at 405 nm. The melanin content was calculated with the following equation: % Melanin content=(S)/(C)×100, where, S is the OD405 of sample and C represents the OD405 of control. All experiments were performed in triplicate.

tyrosinase [2] = details: KNN machine learning model, 425 sequence features; cited from earlier work
From the text: (§1) Table 1 Abalone predicted TIPs by KNN and RF-based predictors and the predicted antioxidant scores by AnOxPePred 1.0 program. | column: Predicted Anti-Tyrosinase Probability / KNN Predictor || Previously, our research team proposed the in-house machine learning-based anti-tyrosinase prediction tool, which provides thousands of potential peptides. The probability scores of all 1079 peptides from KNN-based and RF-based models can be found in the supplementary file of the previous article by Kongsompong et al.. The KNN and RF predictors were trained and tested against 133 peptides with known anti-tyrosinase properties with 97% and 99% accuracy. The predictions of both models were based on the numeric matrix of 425 features calculated from amino acid composition (20 featur ...

tyrosinase [3] = details: RF machine learning model, 425 sequence features; cited from earlier work
From the text: as §1, with “/ RF” for “/ KNN”

mushroom tyrosinase = mushroom tyrosinase (Agaricus bisporus, UniProt C7FF04); experiment: Mushroom tyrosinase activity assay (L-DOPA oxidation, diphenolase); assay type: biochemical; details: L-DOPA substrate, up to 500 μM
Procedure: The inhibitory effect on mushroom tyrosinase was determined spectrophotometrically via L-DOPA oxidation. The reaction mixture consisted of 20 μL of hdTIPs, 140 μL of 100 mM sodium phosphate buffer (pH6.8) and 40 μL of 200 units/mL mushroom tyrosinase (EC 1.14.18.1; Sigma, Saint Louis, USA) placed in a 96-well microplate, then incubated for 10 min. After that, 20 μL of 5mM L-DOPA were mixed into each well over 20 min. Furthermore, the amount of dopachrome produced absorbance was measured at 475 nm. In addition, KA was used as the positive control at the same concentrations and conditions to hdTIPs. This method was modified from Kim et al..
The mushroom tyrosinase inhibitory activity was calculated with the following equation: % Mushroom tyrosinase inhibition=[(C)−(S)/(C)]×100, where, C represents the OD475 of control and S is the OD475 of sample. All experiments were performed in triplicate to determine the IC50 of the samples.

[4] = system: reactive oxygen species (ROS) level in B16F10 cells; experiment: ROS level in B16F10 cells after UV exposure (assay kit); assay type: cell-based, murine; details: 70 μM, UV-exposed B16F10 cells, compared to untreated control group
Procedure: (§2) To determine the antioxidant activity, the centrifugation precipitate from Section 4.6 was dissolved in 1 mL of 1 M NaOH containing 10% DMSO at 80 °C for 1 h. Various assay kits, all from Beijing Solarbio Science & Technology Co., Ltd., Beijing, China, were used to measure the quantity of reduced reactive oxygen species (ROS) and the activity of superoxide dismutase (SOD), catalase (CAT), and glutathione peroxidase (GPx) according to the methods by Hu et al..

[5] = system: superoxide dismutase (SOD); experiment: Antioxidative enzyme activity, superoxide dismutase (assay kit); assay type: cell-based, murine; details: 70 μM, UV-exposed B16F10 cells
Procedure: as §2

catalase (CAT) = experiment: Antioxidative enzyme activity, catalase (assay kit); assay type: cell-based, murine; details: 70 μM, UV-exposed B16F10 cells
Procedure: as §2

B16F10 melanoma cells [6] = experiment: Cell viability assay (MTT assay); assay type: cell-based, murine; details: 0–1000 μg/mL, 24 h
Procedure: The number of viable cells was determined by the ability of mitochondria to convert MTT to formazan dye. The quantity of formazan formed is proportional to the number of viable cells present and can be measured spectrophotometrically. The method for MTT assay in this study was modified from Zaidi et al.. […] After 24 h incubation, 1 mg/mL of MTT (Invitrogen, Eugene, USA) solution was replaced prior to incubation at 37 °C for 3 h. The formazan precipitates were dissolved by 100 μL of dimethyl sulfoxide (DMSO) and the concentrations were measured at 570 nm in a microplate reader (Synergy H1, BioTek, Santa Clara USA). Cell viability was calculated using the following formula: cell viability (%) = (Asample/Acontrol) × 100, where Asample and Acontrol are the absorbances from the mixture with or without the addition of test sample, respectively.

Chain of mushroom tyrosinase (C7FF04 1-392): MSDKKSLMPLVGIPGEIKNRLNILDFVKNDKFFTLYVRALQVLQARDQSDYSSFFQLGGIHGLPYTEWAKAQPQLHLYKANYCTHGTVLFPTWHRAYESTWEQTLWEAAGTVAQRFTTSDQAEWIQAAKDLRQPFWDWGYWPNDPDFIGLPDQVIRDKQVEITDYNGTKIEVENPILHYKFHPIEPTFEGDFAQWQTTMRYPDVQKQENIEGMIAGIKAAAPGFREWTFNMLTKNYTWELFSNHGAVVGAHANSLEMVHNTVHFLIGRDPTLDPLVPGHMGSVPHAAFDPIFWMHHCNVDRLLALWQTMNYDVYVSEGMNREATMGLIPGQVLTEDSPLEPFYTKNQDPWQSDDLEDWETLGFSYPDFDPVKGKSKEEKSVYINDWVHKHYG
Chain of mushroom tyrosinase (G1K3P4 1-150 partner): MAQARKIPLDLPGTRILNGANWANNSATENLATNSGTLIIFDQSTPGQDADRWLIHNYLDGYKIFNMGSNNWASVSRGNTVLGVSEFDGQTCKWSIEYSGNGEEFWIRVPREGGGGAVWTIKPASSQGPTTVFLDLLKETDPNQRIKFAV

inhibition of cellular tyrosinase (cellular tyrosinase)	SMILES	inhibition of melanin content (B16F10 melanoma cells [1])	Predicted Anti-Tyrosinase Probability KNN Predictor (tyrosinase [2])	Predicted Anti-Tyrosinase Probability RF Predictor (tyrosinase [3])	effect on relative percentage of ROS in melanoma cells [4]	other results
unable to inhibit	CC[C@H](C)[C@H](NC(=O)[C@@H](N)CC(N)=O)C(=O)N[C@@H](CS)C(=O)N[C@@H](CCC(=O)O)C(=O)N[C@@H](CS)C(=O)N[C@@H](CCSC)C(=O)N[C@@H](CCCCN)C(=O)O [KNN1] (H-NICECMK-OH; N-terminus and C-terminus assumed)	unable to inhibit; also recorded: did not inhibit	1.00	0.39		
	CC(C)[C@H](NC(=O)[C@H](CCCNC(=N)N)NC(=O)[C@H](Cc1ccc(O)cc1)NC(=O)[C@H](CC(N)=O)NC(=O)[C@H](CCCCN)NC(=O)[C@@H](N)CCCCN)C(=O)N[C@@H](CO)C(=O)N[C@@H](CCC(=O)O)C(=O)N[C@@H](C)C(=O)N[C@@H](Cc1ccc(O)cc1)C(=O)N[C@@H](CCCCN)C(=O)O [KNN3] (H-KKNYRVSEAYK-OH; N-terminus and C-terminus assumed)		1.00	0.32		
	CC(C)C[C@H](NC(=O)[C@H](CO)NC(=O)[C@H](CO)NC(=O)[C@@H](N)CC(N)=O)C(=O)N[C@@H](CCCNC(=N)N)C(=O)N[C@H](C(=O)N[C@@H](CCC(N)=O)C(=O)N[C@@H](CO)C(=O)N[C@@H](CCCNC(=N)N)C(=O)O)C(C)C [RF2] (H-NSSLRVQSR-OH; N-terminus and C-terminus assumed)		0.00	0.60		inhibitory effect on mushroom tyrosinase (diphenolase activity) (mushroom tyrosinase): did not show any inhibition
5.11%	CC(C)[C@H](NC(=O)[C@H](CO)NC(=O)[C@H](CCCNC(=N)N)NC(=O)[C@H](CO)NC(=O)[C@H](CC(N)=O)NC(=O)[C@H](CO)NC(=O)[C@H](CCC(N)=O)NC(=O)[C@@H](N)CO)C(=O)N[C@@H](CO)C(=O)N[C@@H](CCCNC(=N)N)C(=O)O [RF3] (H-SQSNSRSVSR-OH; N-terminus and C-terminus assumed)	6.09%	0.00	0.52	significant reductive effects	effect on SOD activity [5]: affected; effect on CAT activity (catalase (CAT)): affected
	C[C@H](NC(=O)[C@H](CC(=O)O)NC(=O)[C@H](CO)NC(=O)[C@H](CO)NC(=O)[C@H](C)NC(=O)[C@@H](N)[C@@H](C)O)C(=O)N[C@@H](Cc1c[nH]c2ccccc12)C(=O)N[C@@H](Cc1ccc(O)cc1)C(=O)N[C@@H](CCCNC(=N)N)C(=O)O [TIP1] (H-TASSDAWYR-OH; N-terminus and C-terminus assumed)				significant reductive effects	
3.32%	CSCC[C@H](NC(=O)[C@H](Cc1ccccc1)NC(=O)[C@@H]1CCCN1C(=O)[C@H](C)NC(=O)[C@@H](N)CO)C(=O)N1CCC[C@H]1C(=O)N[C@@H](CC(=O)O)C(=O)N[C@@H](C)C(=O)N[C@@H](Cc1ccccc1)C(=O)N[C@@H](Cc1ccccc1)C(=O)N[C@@H](CCCNC(=N)N)C(=O)N[C@@H](CC(N)=O)C(=O)N[C@H](C(=O)O)C(C)C [TIP2] (H-SAPFMPDAFFRNV-OH; N-terminus and C-terminus assumed)	6.71%				
	OC[C@H]1O[C@@H](Oc2ccc(O)cc2)[C@H](O)[C@@H](O)[C@@H]1O [arbutin, reference compound]					effect on cell proliferation of melanoma cells (B16F10 melanoma cells [6]): did not affect the cell proliferation
	O=c1cc(CO)occ1O [kojic acid, reference compound]					inhibition at 100 µg/mL (B16F10 melanoma cells [1]; Mus musculus, B16-F10, light or radiation study): 21.1%

SMILES	inhibition of cellular tyrosinase (cellular tyrosinase)	inhibition of melanin content (B16F10 melanoma cells [1])	Predicted Anti-Tyrosinase Probability KNN Predictor (tyrosinase [2])	Predicted Anti-Tyrosinase Probability RF Predictor (tyrosinase [3])	effect on relative percentage of ROS in melanoma cells [4]	other results
C[C@H](NC(=O)[C@@H](N)CO)C(=O)N1CCC[C@H]1C(=O)N[C@H](C(=O)N[C@@H](Cc1ccccc1)C(=O)N[C@@H](Cc1ccccc1)C(=O)N[C@@H](CCCNC(=N)N)C(=O)O)[C@@H](C)O [RF1] (H-SAPTFFR-OH; N-terminus and C-terminus assumed)	18.26%	10.69%	0.00	0.63	significant reductive effects	inhibitory effect on mushroom tyrosinase (diphenolase activity) (mushroom tyrosinase): did not inhibit

Source: article PMC9965614, “Computer-Aided Virtual Screening and In Vitro Validation of Biomimetic Tyrosinase Inhibitory Peptides from Abalone Peptidome” (International Journal of Molecular Sciences, 2023)
